From patent publication US20220304352A1, “TASTE-MODIFYING COMPOUNDS AND USES THEREOF” (Firmenich SA, priority 2019, published 2022) come the findings set out here.

Each structure is given as a SMILES string.

Type in all cases: in vivo
The test system of test [1] is trained panelists. Nature of the test: Sensory evaluation of umami in 0.05% MSG base (trained panel, scale -5 to 5). The source says: (§1) A panel consisting of 25 trained panelists evaluated samples at 5, 10 or 20 ppm for taste properties (salt and/or umami, or KCl taste) on a scale of −5 to 5 (−5 denoted strong masking effect and 5 denoted strong enhancing effect, 0 being the intensity of a reference water solution containing 0.25% NaCl or 0.25% KCl or 0.05% MSG or 1.5% chicken broth base). A panel consisted of 25 trained panelists evaluated samples at 5 ppm for taste properties (salt and/or umami) on a scale of −5 to 5 (−5 denoted strong masking effect and 5 denoted strong enhancing effect, 0 being the intensity of a reference water solution containing 0.25% NaCl or 0.05% MSG or 1.5% chicken broth base). • 1) Sensory Evaluation

Test [2] concerns trained panelists. Nature of the test: Sensory evaluation of saltiness in 0.25% NaCl base (trained panel, scale -5 to 5).
From the text: as §1

The test system of test [3] is trained panelists. Nature of the test: Sensory evaluation of saltiness and KCl taste in 0.25% KCl base (trained panel, scale -5 to 5). The note with it: 0.25% KCl base, 20 ppm. The source says:
A panel consisting of 25 trained panelists evaluated samples at 5, 10 or 20 ppm for taste properties (salt and/or umami, or KCl taste) on a scale of −5 to 5 (−5 denoted strong masking effect and 5 denoted strong enhancing effect, 0 being the intensity of a reference water solution containing 0.25% NaCl or 0.25% KCl or 0.05% MSG or 1.5% chicken broth base).

As for `O=C(/C=C/c1ccccc1)NCCO` [Compound IV], the umami enhancement result is listed as “enhanced umami” in the test on trained panelists [1] (10 ppm, with nose-clip) and “enhanced umami” with trained panelists [1] (10 ppm, without nose-clip). The saltiness enhancement result in the test on trained panelists [2] (10 ppm, with nose-clip) is reported as “significantly enhanced saltiness”; in the test on trained panelists [2] (10 ppm, without nose-clip), “enhanced saltiness”.
On to `N=C(N)NCCCC(NC(=O)/C=C/c1ccccc1)C(=O)O` (stereo not drawn) [Compound VI], for which the umami enhancement entry in the test on trained panelists [1] (5 ppm, without nose-clip) is listed as “significantly enhanced umami intensity”; with trained panelists [1] (10 ppm, with nose-clip), “enhanced”; in the test on trained panelists [1] (10 ppm, without nose-clip) it was “enhanced”. Also, the saltiness enhancement result is “significantly enhanced saltiness intensity” in the test on trained panelists [2] (5 ppm, with nose-clip); “enhanced saltiness” in the test with trained panelists [2] (10 ppm, with nose-clip); “enhanced saltiness” with trained panelists [2] (10 ppm, without nose-clip).
In the case of `O=C(NCCO)c1ccccc1` [Compound II], the umami enhancement result was “enhanced” in the test with trained panelists [1] (5 ppm, with nose-clip) and “enhanced umami” in the test with trained panelists [1] (5 ppm, without nose-clip). Further, the saltiness enhancement result with trained panelists [2] (5 ppm, with nose-clip) is recorded as “significantly enhanced saltiness”; in the test with trained panelists [2] (5 ppm, without nose-clip) it was “enhanced saltiness”.
With `O=C(/C=C/C=C/c1ccc2c(c1)OCO2)NCCO` [Compound V], the KCl taste masking result with trained panelists [3] (with nose-clip) and with trained panelists [3] (without nose-clip) was “significantly masked KCl taste” in each case. The saltiness enhancement result with trained panelists [3] (with nose-clip) and in the test with trained panelists [3] (without nose-clip) was “enhanced saltiness” each time. In addition, the umami enhancement entry with trained panelists [1] (20 ppm, with nose-clip) is reported as “enhanced umami”; in the test with trained panelists [1] (20 ppm, without nose-clip) it was “enhanced umami”.
With `O=C(NCCO)c1ccc(O)cc1` [Compound III], the umami enhancement entry is reported as “enhanced umami” with trained panelists [1] (5 ppm, with nose-clip) and “enhanced umami” in the test with trained panelists [1] (5 ppm, without nose-clip). Besides, the saltiness enhancement result is “significantly enhanced saltiness” with trained panelists [2] (5 ppm, with nose-clip) and “significantly enhanced saltiness” with trained panelists [2] (5 ppm, without nose-clip).
